# Tests used:
# Assay type in all cases: physicochemical
# [1] = Solid form conversion of solvates on heating, drying or storage (XRPD)
# [2] = Dynamic vapour sorption (DVS); conditions: for water uptake up to 90% RH / hygroscopicity by DVS analysis: 25° C.; for water uptake up to 90% RH: 0% RH to 90% RH; for hygroscopicity by DVS analysis: up to 90% RH; for Hygroscopicity in DVS, uptake at 90% RH: Table 3, 90% RH; for solid form by XRPD analysis after DVS analysis: after DVS cycle
# Description: Dynamic vapour sorption (DVS) was measured using a SMS DVS Intrinsic moisture sorption analyser changing the relative humidity from 0% RH to 90% RH. The sample temperature was maintained at 25° C. The humidity was controlled by mixing streams of dry and wet nitrogen, with a total flow rate of 200 ml/min. The relative humidity was measured by a calibrated Rotronic probe (dynamic range of 1.0-100% RH), located near the sample. The weight change of the sample as a function of % RH was constantly monitored by a balance.
# Typically, 5-30 mg of sample was placed in a tared mesh stainless steel basket under ambient conditions. The sample was loaded and unloaded at 40% RH and 25° C. (typical room conditions).
# [3] = Stability of HCl salt forms at accelerated (elevated) conditions; conditions: for Stability at elevated conditions: Table 3
# Description: To further elucidate differences between the hydrochloride salt forms, their stability at accelerated conditions and their hygroscopicity was measured. The data are summarized in Table 3 together with the observations reported in Example 20.
# [4] = Competitive slurry experiments between different forms of Compound (I) HCl salt
# Description: Competitive slurry experiments between different form of Compound (I) HCl salt were performed to elucidate the relative thermodynamic stability between unsolvated crystalline forms of interest.
# The resulting slurries were stirred for 3 hours to approach equilibrium conditions at either 5 or 50° C., 500 rpm. The following solvents and solvent combinations were utilized: EtOAc, MIBK, THF, MeCN, MeOH, and Acetone.
# This dry powder mixture was mixed in a gyroscopic Turbula mixer for 2 hours. Then 50 mg aliquots of the mixture were weighed into HPLC vials and 0.5 mL of the above saturated solutions were added. The resulting suspensions were then stirred for 7 days.
# The above competitive slurries were sampled after 1 and 7 days. The samples taken after 1 day were air dried and analyzed with XRPD. The samples taken after 7 days were first analyzed in wet state (covered with a Kapton film) in the XRPD and then subjected to air drying and analyzed again.
# [5] = Competitive slurry experiments between Compound (I) form 1 and form 7; conditions: for relative thermodynamic stability: slurry in methanol or ethanol at 5° C., room temperature and 50° C. for one week
# Description: The relative thermodynamic stability of Compound (I) form 1 and Compound (I) form 7 was elucidated using competitive slurry experiments as detailed in the following.
# Step 1: Compound (I) form 1 (150 mg) and Compound (I) form 7 (150 mg) were mixed in a 20 mL vial. 40 mg (each) of this physical mixture was placed into six 2 mL vials.
# Step 2: Using the remaining 60 mg of the physical mixture, saturated solutions with methanol and ethanol, respectively, were produced. The saturated solutions were filtered off.
# Step 3: 10 volumes ([…]) of each saturated solution were added to each of the six 2 mL vials mentioned in step 1.
# Step 4: One vial for each solvent was kept at 5° C., room temperature and 50° C. for one week.
# XRPD analysis carried out on the solids yielded a pattern substantially similar to FIG. 1 for all six vials.
# [6] = Variable temperature XRPD of Compound (I) form 7; conditions: VT-XRPD, heating 10° C./min
# Description: Procedure 4 carried out under non-ambient conditions: For variable temperature (VT-XRPD) experiments the samples were prepared and analysed in an Anton Paar chromed sample holder. A heating/cooling rate of 10° C./min was used. The measurement parameters are as per the standard screening data collection method (detailed in Procedure 3 above). Measurements were taken at the following temperatures: 25, 100, 145, 150, 155, 160, 165, 170, 175, and 25° C.
# Compound (I) form 7 obtained using the procedure detailed in Example 2 was subjected to variable temperature X-ray powder diffraction (VT-XRPD), as described in Example 10 (“[…]”).
# [7] = DVS, listed as Compound (I) HCl form 2
# [8] = DVS, listed as Compound (I) HCl form 4
# [9] = DVS, listed as Compound (I) HCl form 5
# [10] = DVS, listed as Compound (I) HCl form 6
structure (smiles),measurement,setting,value
"C1COCCO1.O=C(O)c1ccn(C(=O)N2CCC3(CCCN3Cc3ccc(C(F)(F)F)cc3N3CCCC3)CC2)n1 [Compound (I) 1,4-dioxane solvate form 1, 1-(1-(2-(pyrrolidin-1-yl)-4-(trifluoromethyl)benzyl)-1,8-diazaspiro[4.5]decane-8-carbonyl)-1H-pyrazole-3-carboxylic acid 1,4-dioxane solvate form 1]",solid form change upon drying,[1]; two hours in a vacuum oven at room temperature,transforms into Compound (I) form 1 upon drying
CC1CCCO1.Cl.O=C(O)c1ccn(C(=O)N2CCC3(CCCN3Cc3ccc(C(F)(F)F)cc3N3CCCC3)CC2)n1 [Compound (I) HCl salt 2-MeTHF solvate],solid form change upon storage,[1]; 40° C./75% RH for 7 days,transformed into Compound (I) HCl Form 2
same,solid form change upon drying,[1]; 100° C. for 10 minutes,transformed into Compound (I) HCl salt form 4
Cl.O=C(O)c1ccn(C(=O)N2CCC3(CCCN3Cc3ccc(C(F)(F)F)cc3N3CCCC3)CC2)n1 [Compound (I) HCl salt MIBK solvate],solid form change upon drying,[1]; drying the solid (conditions not given),transforms into Compound (I) HCl salt form 2 upon drying
"Cl.O=C(O)c1ccn(C(=O)N2CCC3(CCCN3Cc3ccc(C(F)(F)F)cc3N3CCCC3)CC2)n1 [Compound (I) HCl salt form 2, 1-(1-(2-(pyrrolidin-1-yl)-4-(trifluoromethyl)benzyl)-1,8-diazaspiro[4.5]decane-8-carbonyl)-1H-pyrazole-3-carboxylic acid HCl salt form 2]",water uptake compared with the other HCl salt forms,[2]; DVS,lowest water uptake
same,water uptake up to 90% RH,[2]; [7],0.5 % wt
same,hygroscopicity by DVS analysis,[2]; [7],slightly hygroscopic
same,"Hygroscopicity in DVS, uptake at 90% RH",[2]; listed as Form 2,(0.5 wt %
same,Stability at elevated conditions,[3]; listed as Form 2,No change
same,stability compared with the other HCl salt forms,[3]; accelerated conditions,superior stability over Compound (I) HCl salt form 5 and form 6
"Cl.O=C(O)c1ccn(C(=O)N2CCC3(CCCN3Cc3ccc(C(F)(F)F)cc3N3CCCC3)CC2)n1 [Compound (I) HCl salt form 4, 1-(1-(2-(pyrrolidin-1-yl)-4-(trifluoromethyl)benzyl)-1,8-diazaspiro[4.5]decane-8-carbonyl)-1H-pyrazole-3-carboxylic acid HCl salt form 4]",water uptake up to 90% RH,[2]; [8],1.4 % wt
same,hygroscopicity by DVS analysis,[2]; [8],slightly hygroscopic
same,"Hygroscopicity in DVS, uptake at 90% RH",[2]; listed as Form 4,(1.4 wt %
same,Stability at elevated conditions,[3]; listed as Form 4,No change
Cl.O=C(O)c1ccn(C(=O)N2CCC3(CCCN3Cc3ccc(C(F)(F)F)cc3N3CCCC3)CC2)n1 [Compound (I) HCl salt form 5],water uptake up to 90% RH,[2]; [9],9.2 % wt
same,hygroscopicity by DVS analysis,[2]; [9],moderately hygroscopic
same,"Hygroscopicity in DVS, uptake at 90% RH",[2]; listed as Form 5,(9.2 wt %
Cl.O=C(O)c1ccn(C(=O)N2CCC3(CCCN3Cc3ccc(C(F)(F)F)cc3N3CCCC3)CC2)n1 [Compound (I) HCl salt form 6],water uptake up to 90% RH,[2]; [10],3.1 % wt
same,hygroscopicity by DVS analysis,[2]; [10],moderately hygroscopic
same,"Hygroscopicity in DVS, uptake at 90% RH",[2]; listed as Form 6,(3.1 wt %
Cl.O=C(O)c1ccn(C(=O)N2CCC3(CCCN3Cc3ccc(C(F)(F)F)cc3N3CCCC3)CC2)n1 [Compound (I) HCl salt],XRPD ‘dry’ after 1 day,"[4]; 5 ° C., Acetone",HCl salt Form 4
same,XRPD ‘dry’ after 7 days,"[4]; 5 ° C., Acetone",HCl salt Form 4
same,XRPD ‘wet’ (Kapton film) after 7 days,"[4]; 5 ° C., Acetone",metastable solvate
same,XRPD ‘dry’ after 1 day,"[4]; 5 ° C., EtOAc",HCl salt Form 2
same,XRPD ‘dry’ after 7 days,"[4]; 5 ° C., EtOAc",HCl salt Form 2
same,XRPD ‘wet’ (Kapton film) after 7 days,"[4]; 5 ° C., EtOAc",metastable solvate
same,XRPD ‘wet’ (Kapton film) after 7 days,"[4]; 5 ° C., MIBK",metastable solvate
same,XRPD ‘dry’ after 1 day,"[4]; 5 ° C., MeCN",HCl salt Form 5
same,XRPD ‘dry’ after 7 days,"[4]; 5 ° C., MeCN",HCl salt Form 5
same,XRPD ‘wet’ (Kapton film) after 7 days,"[4]; 5 ° C., MeCN",metastable solvate
same,XRPD ‘wet’ (Kapton film) after 7 days,"[4]; 5 ° C., MeOH",metastable solvate
same,XRPD ‘dry’ after 1 day,"[4]; 5 ° C., THF",HCl salt Form 4
same,XRPD ‘dry’ after 7 days,"[4]; 5 ° C., THF",HCl salt Form 4
same,XRPD ‘wet’ (Kapton film) after 7 days,"[4]; 5 ° C., THF",metastable solvate
same,XRPD ‘dry’ after 1 day,"[4]; 50 ° C., Acetone",HCl salt Form 2
same,XRPD ‘dry’ after 7 days,"[4]; 50 ° C., Acetone",HCl salt Form 2
same,XRPD ‘wet’ (Kapton film) after 7 days,"[4]; 50 ° C., Acetone",metastable solvate
same,XRPD ‘dry’ after 1 day,"[4]; 50 ° C., EtOAc",HCl salt Form 2
same,XRPD ‘dry’ after 7 days,"[4]; 50 ° C., EtOAc",HCl salt Form 2
same,XRPD ‘wet’ (Kapton film) after 7 days,"[4]; 50 ° C., EtOAc",metastable solvate
same,XRPD ‘wet’ (Kapton film) after 7 days,"[4]; 50 ° C., MIBK",metastable solvate
same,XRPD ‘dry’ after 1 day,"[4]; 50 ° C., MeCN",HCl salt Form 5
same,XRPD ‘dry’ after 7 days,"[4]; 50 ° C., MeCN",HCl salt Form 5
same,XRPD ‘wet’ (Kapton film) after 7 days,"[4]; 50 ° C., MeCN",metastable solvate
same,XRPD ‘wet’ (Kapton film) after 7 days,"[4]; 50 ° C., MeOH",metastable solvate
same,XRPD ‘dry’ after 1 day,"[4]; 50 ° C., THF",HCl salt Form 4
same,XRPD ‘dry’ after 7 days,"[4]; 50 ° C., THF",HCl salt Form 4
same,XRPD ‘wet’ (Kapton film) after 7 days,"[4]; 50 ° C., THF",metastable solvate
"CC(C)=O.O=C(O)c1ccn(C(=O)N2CCC3(CCCN3Cc3ccc(C(F)(F)F)cc3N3CCCC3)CC2)n1 [Compound (I) acetone solvate, 1-(1-(2-(pyrrolidin-1-yl)-4-(trifluoromethyl)benzyl)-1,8-diazaspiro[4.5]decane-8-carbonyl)-1H-pyrazole-3-carboxylic acid acetone solvate]",solid form change upon heating,[1]; heating for 2 min at 175° C.,transforms into Compound (I) form 1 at elevated temperature
"O=C(O)c1ccn(C(=O)N2CCC3(CCCN3Cc3ccc(C(F)(F)F)cc3N3CCCC3)CC2)n1 [Compound (I) form 1, 1-(1-(2-(pyrrolidin-1-yl)-4-(trifluoromethyl)benzyl)-1,8-diazaspiro[4.5]decane-8-carbonyl)-1H-pyrazole-3-carboxylic acid]",water uptake up to 90% RH,[2]; DVS,< 1%
same,hygroscopicity by DVS analysis,[2]; DVS,largely non-hygroscopic
same,solid form by XRPD analysis after DVS analysis,[2],still Compound (I) form 1
same,relative thermodynamic stability,[5],more thermodynamically stable than Compound (I) form 7 at all temperatures tested
same,relative thermodynamic stability,"[5]; listed as 1-(1-(2-(pyrrolidin-1-yl)-4-(trifluoromethyl)benzyl)-1,8-diazaspiro[4.5]decane-8)",thermodynamically stable
"O=C(O)c1ccn(C(=O)N2CCC3(CCCN3Cc3ccc(C(F)(F)F)cc3N3CCCC3)CC2)n1 [Compound (I) form 7, 1-(1-(2-(pyrrolidin-1-yl)-4-(trifluoromethyl)benzyl)-1,8-diazaspiro[4.5]decane-8-carbonyl)-1H-pyrazole-3-carboxylic acid]",water uptake up to 90% RH,[2]; DVS,~6%
same,hygroscopicity by DVS analysis,[2]; DVS,moderately hygroscopic
same,solid form by XRPD analysis after DVS analysis,[2],still Compound (I) form 7
same,form conversion in competitive slurry,"[5]; methanol or ethanol, 5° C., room temperature, 50° C., one week",transforms into Compound (I) form 1 at all temperatures tested
same,temperature at which conversion to Compound (I) form 1 begins,[6],160 °C
same,temperature at which exclusively Compound (I) form 1 was obtained,[6],170 °C

# From patent US12152029B2, “Crystalline forms of a MAGL inhibitor” (H. Lundbeck A/S, priority 2021, dated 2024)
